Results reported in patent US20170128468A1, “PHOSPHATIDYLGLYCEROL AS AN ANTI-INFLAMMATORY” (Agusta University Research Institute, Inc., priority 2015, published 2017).

Key:
TPA-induced ear edema = experiment: Contact irritant (TPA) ear edema mouse in vivo model
Experimental: Experiments were performed as described in (27). Briefly, the ears of three to five male ICR CD-1 outbred mice [25-30 g; 5-6 weeks of age from Harlan Laboratories (Indianapolis, Ind.)] were treated with acetone or TPA (0.03% in acetone), and at 1 h and 4 h after TPA, the appropriate vehicle or the treatment in vehicle was applied to each ear. Ear thickness was measured using a caliper both before and at approximately 18-20 h after TPA treatment prior to sacrifice. After sacrifice, a circular ear punch biopsy (4 mm^2) was taken, weighed, and fixed in formalin. Histological evaluation included H&E staining and immunohistochemical staining for CD45 to quantify the number of infiltrating immune cells (see below).
(§1) Sections (10 μm) were cut from formalin-fixed paraffin-embedded ear biopsies and deparaffinized and rehydrated as described in (28). […] Multiple random sections (4 to 8 per mouse separately from the left and right ear) were counted by two independent observers in a blinded fashion, counts averaged to determine a value for each mouse ear and values statistically analyzed as described below.
Experiments were performed as described in Clark S P; Bollag W B; Westlund K N; Ma F; Falls G; Xie D; Johnson M; Isales C M; Bhattacharyya M H: Pine oil effects on chemical and thermal injury in mice and cultured mouse dorsal root ganglion neurons. […] Ear thickness was measured using a caliper both before and at approximately 18-20 h after TPA treatment prior to sacrifice. […] Histological evaluation included H&E staining and immunohistochemical staining for CD45 to quantify the number of infiltrating immune cells (see below).
as §1, with “(Voss K E et al., Arch. Dermatol. Res. 303 591-600 (2011)).” for “(28).”, “below. […]” for “below.”

[1] = test system: Pam3CSK4-induced inflammatory mediator expression in keratinocytes; experiment: qRT-PCR of inflammatory mediator mRNA in keratinocytes treated with Pam3CSK4 (TLR1/2 agonist); assay type: cell-based, mouse
Experimental: (§2) Primary cultures of mouse epidermal keratinocytes were prepared from ICR strain CD-1 outbred neonatal mice 1-3 days of age as described in detail in (Bollag W B, et al., J Invest Derm 100 240-246 (1993); Griner R, et al., J Biol Chem, 274 4663-4670 (1999)). All procedures were approved by the Institutional Animal Care and Use Committee. RAW264.7 cells, a mouse macrophage-derived cell line, were kindly provided by Drs. Qing Zhong and Carlos Isales (Augusta University) and were cultured in DMEM containing 10% fetal bovine serum and 1% penicillin and streptomycin.
(§3) Keratinocytes were treated with or without TPA or a synthetic triacylated lipoprotein (Pam3CSK4), a TLR1/TLR2 agonist, or recombinant S100A9 (R&D Systems) or HSPB4 (MyBiosoruce) as indicated, for 2 hours in the presence and absence of different concentrations of soy PG or dioleoylphosphatidylglycerol (DOPG). Cells were harvested and RNA isolated using PerfectPure RNA tissue kits (5 PRIME, Inc, Gaithersburg, Md., USA) as per the manufacturer's protocol. Following verification of RNA integrity using a Nanodrop instrument (NanoDrop Technologies, Wilmington, Del.), RNA was reverse-transcribed to cDNA with iScript cDNA synthesis kits (Bio-Rad Laboratories, Hercules, Calif., USA) and analyzed by real-time PCR using Taqman primer/probe sets from Applied Biosystems (Life Technologies, Grand Island, N.Y.). […]

[2] = test system: Pam3CSK4-induced inflammatory mediator expression in macrophage cell line RAW 264.7; experiment: qRT-PCR of inflammatory mediator mRNA in RAW 264.7 macrophage cell line treated with Pam3CSK4; assay type: cell-based, mouse; conditions: 2 h
Experimental: as §2
(§4) Keratinocytes were treated with or without TPA or a synthetic triacylated lipoprotein (Pam3CSK4), a TLR1/TLR2 agonist, or recombinant S100A9 (R&D Systems) or HSPB4 (MyBiosoruce) as indicated, for 2 hours in the presence and absence of different concentrations of soy PG or dioleoylphosphatidylglycerol (DOPG). Cells were harvested and RNA isolated using PerfectPure RNA tissue kits (5 PRIME, Inc, Gaithersburg, Md., USA) as per the manufacturer's protocol. Following verification of RNA integrity using a Nanodrop instrument (NanoDrop Technologies, Wilmington, Del.), RNA was reverse-transcribed to cDNA with iScript cDNA synthesis kits (Bio-Rad Laboratories, Hercules, Calif., USA) and analyzed by real-time PCR using Taqman primer/probe sets from Applied Biosystems (Life Technologies, Grand Island, N.Y.). Reactions were performed using Fast Reagent PCR Master Mix (Applied Biosystems) and a StepOnePlus Real-Time PCR System (Applied Biosystems) as instructed by the manufacturer. Expression of genes of interest was determined using the delta-delta Ct method normalized to the expression of GAPDH as the endogenous housekeeping gene and expressed relative to the appropriate control group.

[3] = test system: S100A9-induced inflammatory mediator expression in RAW 264.7 macrophage cell line; experiment: qRT-PCR of inflammatory mediator mRNA in RAW 264.7 cells treated with recombinant S100A9; assay type: cell-based, mouse; conditions: 2 h, FIGS. 6A-6D
Experimental: as §2, §3

[4] = test system: HSPB4-induced inflammatory mediator expression in RAW cell line; experiment: qRT-PCR of inflammatory mediator mRNA in RAW 264.7 cells treated with recombinant HSPB4; assay type: cell-based, mouse; conditions: 2 h, FIGS. 7A-7D
Experimental: as §2, §3

[5] = test system: TNFα protein secretion by RAW264.7 cells; experiment: TNFα protein secretion by ELISA in RAW264.7 culture supernatants; assay type: cell-based, mouse; conditions: 2 h; for TNFα protein secretion: DAMP alone (S100A9 2 μg/mL; HSPB4 0.1 or 1 μg/mL), FIGS. 8A-8B
Experimental: Cells were treated with recombinant S100A9 or recombinant HSPB4 as indicated and media collected. TNFα levels were determined in the supernatant using an ELISA kit (BD Biosciences) according to the manufacturer's instructions.
Mouse TNFα ELISA kits from BD Biosciences (San Jose, Calif.) were used. RAW264.7 cells were treated with or without recombinant S100A9 or HSPB4 in the presence and absence of DOPG for 2 hours. Cell culture supernatants were collected and stored at −80° C. and subjected to a single freeze-thaw cycle. The ELISA assay was performed according to the manufacturer's instructions with the optical density detected in each sample within 30 minutes, at a wavelength of 450 nm and corrected at 570 nm.

[6] = test system: NF-κB phosphorylation/activation in RAW264.7 cells; experiment: Western analysis of NF-κB phosphorylation/activation in RAW264.7 cells stimulated with Pam3CSK4; assay type: cell-based, mouse; conditions: 10 minutes, FIG. 9
Experimental: Membranes containing transferred proteins were blocked with 5% non-fat dry milk for at least 30 minutes before incubating with the appropriate primary antibodies, overnight, followed by washing and incubating with secondary antibodies for 1 h at room temperature. Immunoreactivity was visualized using infrared imaging on an Odyssey imaging system (LI-COR Biosciences, Lincoln, Nebr.).

[7] = test system: S100A9-induced inflammatory mediator expression in keratinocytes; experiment: qRT-PCR of inflammatory mediator mRNA in keratinocytes treated with recombinant S100A9 or LPS; assay type: cell-based, mouse
Experimental: as §2, §4

[8] = co-treatment with DOPG 100 μg/mL
[9] = recombinant S100A9 alone, keratinocytes, data not shown

C=C1/C(=C\C=C2/CCC[C@]3(C)[C@@H]([C@H](C)CCCC(C)(C)O)CC[C@@H]23)C[C@@H](O)C[C@@H]1O [1,25-dihydroxyvitamin D3]
effect on ear edema (TPA-induced ear edema; agent alone in 95% ethanol/5% water, applied 1 and 4 h after 0.03% TPA, FIGS. 10A-10C): neither 1,25-dihydroxyvitamin D3 nor soy PG alone had a significant effect

CCCCCCCC/C=C\CCCCCCCC(=O)OC[C@H](COP(=O)(O)OCC(O)CO)OC(=O)CCCCCCC/C=C\CCCCCCCC (some centres unmarked) [DOPG, dioleoylphosphatidylglycerol]
Pam3CSK4-induced increase in the expression of all cytokines tested (IL1α, IL1β, IL6, TNFα mRNA) ([1]; DOPG at either 50 or 100 μg/mL, Pam3CSK4 1 or 2.5 μg/mL, 2-hour incubation, FIGS. 1A-1D): significantly inhibited | Pam3CSK4-induced IL1α expression ([2]; DOPG 50 μg/mL): inhibited | Pam3CSK4-induced IL1β expression ([2]; DOPG 50 μg/mL): inhibited | Pam3CSK4 induction of TNFα ([2]; DOPG 50 or 100 μg/mL): no effect | Pam3CSK4-induced IL1α mRNA level [2, 8]: inhibition | Pam3CSK4-induced IL1β mRNA level [2, 8]: inhibition | Pam3CSK4-induced IL6 mRNA level [2, 8]: inhibition | S100A9-induced increase in inflammatory mediator expression ([3]; 100 μg/mL DOPG with 2 μg/mL S100A9): inhibit | HSPB4 induction of inflammatory mediator expression ([4]; 100 μg/mL DOPG with 0.1 or 1 μg/mL HSPB4): inhibited | S100A9-induced increase in TNFα protein secretion ([5]; 100 μg/mL DOPG with 2 μg/mL S100A9, FIG. 8A): inhibited | HSPB4-induced increase in TNFα protein secretion ([5]; 100 μg/mL DOPG with 0.1 or 1 μg/mL HSPB4, FIG. 8B): inhibited | Pam3CSK4-increased phosphorylation/activation of NF-κB ([6]; co-treatment with 100 μg/mL DOPG, 2.5 μg/mL Pam3CSK4): inhibited

CCCCCCCCCCCCCC(=O)O[C@@H]1[C@@H](C)[C@@]2(O)[C@@H](C=C(CO)C[C@]3(O)C(=O)C(C)=C[C@@H]23)[C@@H]2C(C)(C)[C@]12OC(C)=O [TPA, 12-O-tetra-decanoylphorbol 13-acetate]
increase in ear thickness (TPA-induced ear edema; TPA alone, no subsequent treatment with vehicle, percent change from time 0): 147±16% | increase in ear weight (TPA-induced ear edema; TPA alone, no subsequent treatment with vehicle, punch biopsy versus no-TPA mice): 158±6%

Pam3CSK4 [reference compound]
inflammatory mediator expression in keratinocytes treated with TLR2 agonist ([1]; agonist alone, in vitro): increased | mRNA levels of IL1α, IL1β, IL6 and TNFα upon stimulation ([2]; Pam3CSK4 1 or 2.5 μg/mL alone, FIGS. 3A-3D): up-regulated | phosphorylation/activation of NF-κB (pNFκB/NFκB ratio) ([6]; 2.5 μg/mL Pam3CSK4 alone): increased

phosphatidylglycerol [PG]
S100A9-induced expression of IL-1β ([7]; 100 μg/mL DOPG with 3 μg/mL recombinant S100A9, 2 h, FIG. 5A): inhibited | S100A9-induced expression of IL-6 ([7]; 100 μg/mL DOPG with 3 μg/mL recombinant S100A9, 2 h, FIG. 5B): inhibited | S100A9-induced expression of TNFα ([7]; 100 μg/mL DOPG with 3 μg/mL recombinant S100A9, 2 h, FIG. 5C): inhibited

B1: HSPB4: recombinant small heat shock protein, a DAMP shown to mediate sterile corneal inflammation (protein, UniProt P02489 1-173, looked up)
Alpha-crystallin A chain: MDVTIQHPWFKRTLGPFYPSRLFDQFFGEGLFEYDLLPFLSSTISPYYRQSLFRTVLDSGISEVRSDRDKFVIFLDVKHFSPEDLTVKVQDDFVEIHGKHNERQDDHGYISREFHRRYRLPSNVDQSALSCSLSADGMLTFCGPKIQTGLDATHAERAIPVSREEKPTSAPSS
inflammatory mediator expression (IL1α, IL1β, IL6, TNFα mRNA) ([4]; 0.1 or 1 μg/mL recombinant HSPB4 alone): stimulate | TNFα protein secretion [5]: induce

B2: S100A9: recombinant anti-microbial protein, a DAMP that activates TLR2 (as well as TLR4) (protein, UniProt P06702 1-114, looked up)
Protein S100-A9: MTCKMSQLERNIETIINTFHQYSVKLGHPDTLNQGEFKELVRKDLQNFLKKENKNEKVIEHIMEDLDTNADKQLSFEEFIMLMARLTWASHEKMHEGDEGPGHHHKPGLGEGTP
IL-1α expression ([7]; S100A9 alone, keratinocytes): only minimally stimulated | expression of IL1β ([7]; recombinant S100A9 alone, 1 to 3 μg/mL, 2 h, FIG. 4B): stimulated | expression of IL6 ([7]; recombinant S100A9 alone, 1 to 3 μg/mL, 2 h, FIG. 4C): stimulated | expression of TNFα ([7]; recombinant S100A9 alone, 1 to 3 μg/mL, 2 h, FIG. 4D): stimulated | expression of TLR1 [7, 9]: induced | expression of TLR2 [7, 9]: induced | inflammatory mediator expression (IL1α, IL1β, IL6, TNFα mRNA) ([3]; 2 μg/mL recombinant S100A9 alone): increases | TNFα protein secretion [5]: induce

B3: denatured (heated) S100A9: heat-denatured recombinant S100A9 protein (protein, UniProt P06702 1-114, looked up)
Protein S100-A9: B2 Protein S100-A9
modifications: heat-denatured
notes: heat-denatured recombinant S100A9 protein
stimulating inflammatory mediator mRNA levels, relative to native S100A9 ([7]; denatured (heated) protein, keratinocytes): significantly less effective
